Earlier results as cited in US20110151497A1, “METABOLOMIC PROFILING OF PROSTATE CANCER” (THE REGENTS OF THE UNIVERSITY OF MICHIGAN, priority 2009, published 2011).

Conditions: humans, isotope labeling

Compound: CCCCCCCCCCCCCCCCCC(=O)O [stearic acid]
- fraction of dietary stearic acid oxidatively desaturated to oleic acid relative to fraction of palmitic acid converted to palmitoleic acid: 2.4 times
